Experimental data published in patent US8158621B2, “Methods of treating or preventing autoimmune diseases with 2,4-pyrimidinediamine compounds” (Rigel Pharmaceuticals, Inc., priority 2002, dated 2012).

Tests used:
[1] = tested on: cultured human mast cells (CHMC); assay: CHMC low cell density ionomycin activation: tryptase assay; format: cell-based
[2] = tested on: cultured human mast cells (CHMC); assay: CHMC low cell density IgE activation: tryptase assay; format: cell-based
How it was run: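 Degranulation was triggered with anti-IgE for 30 minutes at 37° C in cultured human mast cells seeded at low density (1000-1500 cells/well, chosen by donor) after a 1 hr equilibration in MT buffer. Released tryptase in cleared supernatant was quantified with a tryptase substrate at room temperature for 30 minutes.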

[3] = low cell density, read-out: CHMC Ionomycin Tryptase
[4] = low cell density, read-out: CHMC anti-IgE Tryptase

Structure (SMILES) | IC50 [1, 3] | IC50 [2, 4] | IC50 ([1]; Low Density CHMC, ionomycin activation, tryptase release, read-out: CHMC Ionomycin Tryptase IC50) | IC50 ([2]; Low Density CHMC, anti-IgE activation, tryptase release, read-out: CHMC anti-IgE Tryptase IC50)
O=C(NNc1nc(Nc2ccc3c(c2)OCCO3)ncc1F)c1ccc2c(c1)OCO2 [Compound R926406] |  |  | > 10 µM | > 10 µM
CC1(C)C(=O)NC(=O)c2cc(Nc3nc(N[C@@H]4CCCC[C@H]4N)ncc3F)ccc21 [Compound R950442] | > 10 µM | > 10 µM |  | 
CNC(=O)n1ccc2ccc(Nc3nc(Nc4cc(C)cc(C)c4)ncc3F)cc21 [Compound R927099] | > 10 µM | > 10 µM |  | 
COc1cc(Nc2ncc(F)c(Nc3ccc4c(c3)C(=O)NC(=O)C4(C)C)n2)cc(OC)c1 [Compound R909323] | > 10 µM | > 10 µM |  | 
CNC(=O)COc1cccc(Nc2ncc(F)c(Nc3ccc4c(c3)[C@@H](N)CCO4)n2)c1 [Compound R950420] | > 10 µM | 0.114 µM |  | 
CNC(=O)n1ccc2ccc(Nc3nc(Nc4cc(OC)cc(OC)c4)ncc3F)cc21 [Compound R926995] | > 10 µM | 9.56 µM |  | 
Cc1cc(Nc2ncc(F)c(Nc3ccc4c(c3)OCCO4)n2)cc(C)c1Cl [Compound R927117] | > 10 µM | 0.614 µM |  | 
COc1ccc(Nc2ncc(F)c(Nc3ccc4c(c3)OCCO4)n2)cc1Cl [Compound R927084] | > 10 µM | 0.466 µM |  | 
COc1ccc(Nc2nc(Nc3cccc(OCC(=O)NCC(O)CO)c3)ncc2F)cc1Cl (racemic) [Compound R926964] | > 10 µM | 0.368 µM |  | 
CNC(=O)COc1cccc(Nc2ncc(F)c(Nc3ccc(OCC(=O)NC)c(Cl)c3)n2)c1 [Compound R927043] | > 10 µM | 0.45 µM |  | 
O=C(NCC(O)CO)C1Cc2cc(Nc3ncc(F)c(Nc4ccc(OC(F)(F)F)c(Cl)c4)n3)ccc2O1 (mixture of isomers) [Compound R926958] | > 10 µM | 0.353 µM |  | 
OCCCn1ncc2cc(Nc3ncc(F)c(Nc4ccc(Cl)cc4)n3)ccc21 [Compound R935383] | > 10 µM | 0.146 µM |  | 
COc1cc(Nc2nc(Nc3ccc4cn(C)nc4c3)ncc2F)ccc1F [Compound R935450] | > 10 µM | 0.494 µM |  | 
COc1c(Cl)cc(Nc2ncc(F)c(Nc3ccc4c(c3)NC(=O)[C@H](C)O4)n2)cc1Cl [Compound R908946] | > 10 µM | 0.51 µM |  | 
CCN(CC)CCNC(=O)c1ccc(Nc2ncc(F)c(Nc3ccc4c(c3)C(=O)NC(=O)C4(C)C)n2)cc1 [Compound R950447] | > 10 µM | 1.42 µM |  | 
CC(C)Oc1ccc(Nc2nc(Nc3ccc4c(c3)C[C@H](C(=O)O[C@@H]3C[C@H](C)CC[C@H]3C(C)C)O4)ncc2F)cc1 [Compound R927062] | > 10 µM | 15.4 µM |  | 
Cn1cc2ccc(Nc3ncc(F)c(Nc4ccc(Cl)c(Cl)c4)n3)cc2n1 [Compound R935444] | > 10 µM | 0.429 µM |  | 
CCN(CC)CCCNc1ncc(F)c(Nc2ccc(Cl)c(Cl)c2)n1 [Compound R950470] | > 10 µM | 16.2 µM |  | 
O=C(N[C@H]1CCOc2ccc(Nc3nc(Cl)ncc3F)cc21)OCc1ccccc1 [Compound R950413] | > 10 µM | > 10 µM |  | 
Cc1cc(Nc2ncc(F)c(Nc3ccc4c(c3)C(=O)NC(=O)C4(C)C)n2)cc(Cl)c1O [Compound R909320] | > 10 µM | 0.29 µM |  | 
O=C1COc2ccc(Nc3nc(Nc4cc(Cl)cc(Cl)c4)ncc3F)nc2N1 [Compound R945454] | > 10 µM | 20.6 µM |  | 
CNC(=O)COc1cccc(Nc2ncc(F)c(Nc3ccc4c(c3)C(=O)NC(=O)C4(C)C)n2)c1 [Compound R909318] | > 10 µM | 1.02 µM |  | 
CNC(=O)CCn1ncc2cc(Nc3ncc(F)c(Nc4ccc(OC)c(Cl)c4)n3)ccc21 [Compound R935462] | > 10 µM | 0.364 µM |  | 
NC1CCOc2ccc(Nc3nc(Nc4ccc5cn[nH]c5c4)ncc3F)cc21 (racemic) [Compound R950423] | > 10 µM | 0.05 µM |  | 

More lines, now with the values ahead:

IC50 [1, 3] | IC50 [2, 4] | IC50 ([1]; Low Density CHMC, ionomycin activation, tryptase release, read-out: CHMC Ionomycin Tryptase IC50) | IC50 ([2]; Low Density CHMC, anti-IgE activation, tryptase release, read-out: CHMC anti-IgE Tryptase IC50) | Structure (SMILES)
> 10 µM | 0.27 µM |  |  | COc1ccc(Nc2ncc(F)c(Nc3ccc4cc[nH]c4c3)n2)cc1Cl [Compound R927091]
88 µM | 0.176 µM |  |  | CC1(C)Oc2ccc(Nc3ncc(F)c(Nc4ccc5cn[nH]c5c4)n3)cc2NC1=O [Compound R935440]
36 µM | 1.08 µM |  |  | CCN(CC)CCNC(=O)c1ccc(Nc2ncc(F)c(Nc3ccc4c(c3)NC(=O)C(CCO)O4)n2)cc1 (racemic) [Compound R950448]
> 10 µM | 50.5 µM |  |  | CCN(CC)CCCNc1ncc(F)c(Nc2ccc3c(c2)NC(=O)[C@H](C)O3)n1 [Compound R950471]
> 10 µM | 0.535 µM |  |  | CNCC1Cc2cc(Nc3ncc(F)c(Nc4ccc(OC)c(Cl)c4)n3)ccc2O1 (racemic) [Compound R927045]
> 10 µM | 1.36 µM |  |  | CNC(=O)COc1cccc(Nc2ncc(F)c(Nc3ccc4c(c3)C(NC(=O)OC(C)(C)C)CCO4)n2)c1 (racemic) [Compound R950405]
> 10 µM | 0.259 µM |  |  | COc1ccc(Nc2nc(Nc3cccc(OCC(=O)NC4CC4)c3)ncc2F)cc1Cl [Compound R926967]
47.5 µM | 0.074 µM |  |  | COc1cc(Nc2ncc(F)c(Nc3ccc4c(c3)NC(=O)C(CCO)O4)n2)cc(OC)c1 (racemic) [Compound R908950]
16.3 µM | 5.19 µM |  |  | CNC(=O)COc1cccc(Nc2ncc(F)c(Nc3ccc4c(c3)C(N(C)C(=O)OC(C)(C)C)CCO4)n2)c1 (racemic) [Compound R950415]
> 10 µM | 1.14 µM |  |  | COc1ccc(Nc2ncc(F)c(NC3CCC3)n2)cc1Cl [Compound R945395]
1.58 µM | 0.144 µM |  |  | COc1c(Cl)cc(Nc2ncc(F)c(Nc3ccc4c(c3)NC(=O)C(C)(C)O4)n2)cc1Cl [Compound R927056]
> 10 µM | 6.95 µM |  |  | CCN(CC)CCCNc1ncc(F)c(Nc2ccc3c(c2)C(=O)NC(=O)C3(C)C)n1 [Compound R950472]
> 10 µM | 0.359 µM |  |  | COc1ccc(Nc2nc(Nc3cccc(OCC(=O)NC4CCC4)c3)ncc2F)cc1Cl [Compound R926969]
1.38 µM | 0.072 µM |  |  | COc1cc(Nc2ncc(F)c(Nc3ccc4c(c3)NC(=O)C(C)(C)O4)n2)cc(OC)c1 [Compound R927074]
> 10 µM | 1.52 µM |  |  | O=C(O)C1Cc2cc(Nc3ncc(F)c(Nc4ccc(OC(F)(F)F)c(Cl)c4)n3)ccc2O1 (centres unmarked) [Compound R926957]
> 10 µM | > 10 µM |  |  | CCN(CC)CCCNc1ncc(F)c(Nc2cc(OC)cc(OC)c2)n1 [Compound R950469]
> 10 µM | 8.64 µM |  |  | NC(=O)c1ccc(Nc2ncc(F)c(Nc3ccc4c(c3)NC(=O)C(CCO)O4)n2)cc1 (racemic) [Compound R950454]
> 10 µM | 0.15 µM |  |  | CNC(=O)CCn1cc2cc(Nc3ncc(F)c(Nc4ccc5c(c4)NC(=O)C(C)(C)O5)n3)ccc2n1 [Compound R935453]
> 10 µM | 0.081 µM |  |  | O=C1COc2ccc(Nc3nc(Nc4ccc5cc[nH]c5c4)ncc3F)nc2N1 [Compound R945443]

IC50 [1, 3] | IC50 [2, 4] | IC50 ([1]; Low Density CHMC, ionomycin activation, tryptase release, read-out: CHMC Ionomycin Tryptase IC50) | IC50 ([2]; Low Density CHMC, anti-IgE activation, tryptase release, read-out: CHMC anti-IgE Tryptase IC50) | Structure (SMILES)
> 10 µM | 3.26 µM |  |  | CNC(=O)COc1cccc(Nc2ncc(F)c(Nc3ccc4c(c3)C(N(C)C(=O)CN(C)C)CCO4)n2)c1 (racemic) [Compound R950419]
> 10 µM | 3.09 µM |  |  | COc1cc(Nc2nc(Nc3ccc(CN)cc3)ncc2F)cc(OC)c1 [Compound R950457]
> 10 µM | 0.155 µM |  |  | COc1ccc(Nc2nc(Nc3cccc(OCC(=O)NCCO)c3)ncc2F)cc1Cl [Compound R926963]
> 10 µM | 2.27 µM |  |  | Nc1cccc(Nc2nc(Nc3ccc(OC(F)(F)F)c(Cl)c3)ncc2F)n1 [Compound R927081]
> 10 µM | 0.286 µM |  |  | Cc1cccc(C)c1Nc1ncc(F)c(Nc2ccc3c(c2)OCCO3)n1 [Compound R927086]
> 10 µM | 0.213 µM |  |  | CNC(=O)CCn1cc2cc(Nc3ncc(F)c(Nc4ccc(Cl)c(Cl)c4)n3)ccc2n1 [Compound R935452]
5.03 µM | 0.134 µM |  |  | COc1ccc(Nc2nc(Nc3ccc4c(cnn4CCCO)c3)ncc2F)cc1Cl [Compound R935461]
15.3 µM | 0.283 µM |  |  | COc1cc(Nc2ncc(F)c(Nc3ccc(OC)c(Cl)c3)n2)cc(OC)c1 [Compound R927066]
> 10 µM | 0.377 µM |  |  | CC(=O)Nc1cccc(Nc2nc(Nc3cc(C)cc(C)c3)ncc2F)n1 [Compound R927092]
0.847 µM | 0.163 µM |  |  | COc1ccc(Nc2ncc(F)c(Nc3ccc4c(c3)NC(=O)C(C)(C)O4)n2)cc1Cl [Compound R927097]
> 10 µM | 0.205 µM |  |  | CNC(=O)COc1cccc(Nc2ncc(F)c(Nc3ccc(OC(C)C)nc3)n2)c1 [Compound R926962]
4.28 µM | 0.236 µM |  |  | COc1c(Cl)cc(Nc2ncc(F)c(Nc3ccc4c(c3)C(N)CCO4)n2)cc1Cl (racemic) [Compound R950424]
12 µM | 1.32 µM |  |  | CC(C)(C)OC(=O)NCc1ccc(Nc2ncc(F)c(Nc3ccc(Cl)c(Cl)c3)n2)cc1 [Compound R950458]
9.09 µM | 1.67 µM |  |  | CNC(=O)COc1cccc(Nc2ncc(F)c(Nc3ccc4c(c3)[C@H](NC(=O)OCc3ccccc3)CCO4)n2)c1 [Compound R950418]
4.3 µM | 0.111 µM |  |  | CCOC(=O)CCn1cc2cc(Nc3ncc(F)c(Nc4ccc5c(c4)NC(=O)C(C)(C)O5)n3)ccc2n1 [Compound R935448]
23 µM | 0.414 µM |  |  | CC1(C)Oc2ccc(Nc3ncc(F)c(Nc4ccc5[nH]ncc5c4)n3)cc2NC1=O [Compound R935438]
15.6 µM | 0.748 µM |  |  | CCOC(=O)CCn1ncc2cc(Nc3ncc(F)c(Nc4ccc(OC)c(Cl)c4)n3)ccc21 [Compound R935460]
5.48 µM | 0.085 µM |  |  | COc1ccc(Nc2ncc(F)c(Nc3ccc4c(c3)NC(=O)C(CCO)O4)n2)cc1Cl (centres unmarked) [Compound R908951]
